# Literature values as cited in patent publication US20260283953A1, “FORMULATIONS OF PHOSPHOLIPID CARRIER COMPLEXES” (priority 2024, published 2026).
# Read-outs that look alike come from different tables or passages of the source.
# Key:
# [1] = natural testosterone
# [2] = for testosterone levels: oral 60 mg dose
# [3] = in vivo
structure (smiles),measurement,setting,value
"C[C@]12CC[C@H]3[C@@H](CCC4=CC(=O)CC[C@@]43C)[C@@H]1CC[C@@H]2O [testosterone, 17β-Hydroxyandrost-4-en-3-one]",half-life,[1],under 1 hour
same,absorption and metabolism with oral delivery,[2]; first pass through the intestines and liver,well-absorbed but extensively metabolized
same,inactivation after oral delivery,"[2]; men, doses of less than 200 mg",rapidly and completely inactivated
same,testosterone levels,[2]; men,no effect
same,testosterone levels,[2]; men with liver cirrhosis,High levels
same,testosterone levels,[2]; prepubertal boys and women,measurably increase
same,circulating testosterone levels,"[2]; oral, large doses such as 200 mg",significant increases
same,oral bioavailability,"[2]; young women, single 25 mg dose",3.6±2.5%
COc1cc(/C=C/C(=O)CC(=O)/C=C/c2ccc(O)c(OC)c2)ccc1O [curcumin],bioavailability,[3],low bioavailability
"O=C(/C=C/C=C/c1ccc2c(c1)OCO2)N1CCCCC1 [Piperine, (2E,4E)-5-(2H-1,3-Benzodioxol-5-yl)-1-(piperidin-1-yl)penta-2,4-dien-1-one]",solubility in water,,dissolves poorly in water
